Measurements published in patent US20040057908A1, “Oral compositions and use thereof” (priority 2003, published 2004).
“And” between values parts separate entries of the source, which are not always exact repeats. Identical values can stand only once.

Experiments:
GTF C [1] = target: T1, GTF C (Streptococcus mutans serotype c, UniProt P13470); test: GTF activity adsorbed onto sHA surface, GTF C; format: biochemical
T1 construct: The supernatant was carefully collected as the source of GTF C; made in house; host or cells: Streptococcus mutans WHB 410 (endogenous gtfC; urea/Triton extract of washed cells, hydroxyapatite chromatography)
T1 sequence (P13470 35-1455): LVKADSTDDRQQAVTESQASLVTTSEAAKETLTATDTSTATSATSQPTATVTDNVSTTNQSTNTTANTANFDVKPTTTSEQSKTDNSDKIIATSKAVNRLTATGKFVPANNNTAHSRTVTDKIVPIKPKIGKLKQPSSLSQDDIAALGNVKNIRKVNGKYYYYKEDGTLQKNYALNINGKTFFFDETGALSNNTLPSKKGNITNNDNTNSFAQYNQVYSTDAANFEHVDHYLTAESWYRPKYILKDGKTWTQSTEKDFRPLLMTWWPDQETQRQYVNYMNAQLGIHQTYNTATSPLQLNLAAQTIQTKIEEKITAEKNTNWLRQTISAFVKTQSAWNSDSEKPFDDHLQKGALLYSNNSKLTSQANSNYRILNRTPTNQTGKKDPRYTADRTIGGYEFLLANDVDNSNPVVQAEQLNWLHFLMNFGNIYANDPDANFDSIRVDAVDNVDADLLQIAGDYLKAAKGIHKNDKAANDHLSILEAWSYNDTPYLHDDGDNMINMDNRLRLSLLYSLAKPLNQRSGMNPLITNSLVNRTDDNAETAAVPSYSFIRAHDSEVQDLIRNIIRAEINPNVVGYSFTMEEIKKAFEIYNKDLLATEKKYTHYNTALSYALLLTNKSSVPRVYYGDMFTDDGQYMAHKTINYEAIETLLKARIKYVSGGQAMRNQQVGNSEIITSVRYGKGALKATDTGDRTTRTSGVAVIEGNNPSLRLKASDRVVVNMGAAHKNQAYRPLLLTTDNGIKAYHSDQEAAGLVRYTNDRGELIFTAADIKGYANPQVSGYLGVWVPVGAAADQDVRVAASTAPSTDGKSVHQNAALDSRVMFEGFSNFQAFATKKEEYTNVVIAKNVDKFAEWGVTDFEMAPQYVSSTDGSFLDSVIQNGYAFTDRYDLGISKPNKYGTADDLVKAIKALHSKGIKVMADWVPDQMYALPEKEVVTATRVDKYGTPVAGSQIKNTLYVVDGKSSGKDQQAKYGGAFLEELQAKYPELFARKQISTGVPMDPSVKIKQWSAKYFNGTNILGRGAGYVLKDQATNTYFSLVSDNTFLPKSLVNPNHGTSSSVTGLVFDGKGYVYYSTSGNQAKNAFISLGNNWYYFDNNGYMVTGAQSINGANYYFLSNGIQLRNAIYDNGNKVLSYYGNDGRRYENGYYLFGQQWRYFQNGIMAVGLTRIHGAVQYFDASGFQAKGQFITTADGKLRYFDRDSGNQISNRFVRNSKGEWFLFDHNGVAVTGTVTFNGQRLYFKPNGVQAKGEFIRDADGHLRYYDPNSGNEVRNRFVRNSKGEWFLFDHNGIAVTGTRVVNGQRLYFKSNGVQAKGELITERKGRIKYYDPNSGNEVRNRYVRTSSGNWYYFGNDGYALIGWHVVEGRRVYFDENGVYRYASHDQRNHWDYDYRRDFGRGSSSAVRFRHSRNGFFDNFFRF
Description: (§1) Glucosyltransferase activity was measured by the incorporation of [^14C-glucose] from labeled sucrose (NEN Research Products, Boston, Mass.) into glucans (Germaine et al., 1974; Venkitaraman et al., 1995). The GTF enzyme added to each sample for all assays was equivalent to the amount required to incorporate 1.0-1.5 μmol of glucose over the four hours reaction (1.0-1.5 units).
(§2) For surface assays, the GTFs were adsorbed to hydroxyapatite beads coated with clarified whole saliva (free of GTF activity), as detailed elsewhere (Koo et al., 2000c; Schilling and Bowen, 1988, Venkitaraman et al., 1995). The saliva-coated hydroxyapatite (sHA) beads were exposed to sufficient enzyme to saturate the surface as determined experimentally. Following the adsorption of the enzyme, the beads were washed 3 times with buffer to remove the loosely bound material and exposed to 300 μl of the two-fold dilution series of test compounds (or control) for 30 min. at the same concentrations described above. The beads were washed and exposed to 300 μl [^14C-glucose]-sucrose substrate (100.0 mmol/l sucrose, final concentration). The radiolabeled glucan formed was collected and quantified by scintillation counting (Germaine et al., 1974; Venkitaraman et al., 1995). All the solution and surface assays were done in quadruplicate in at least 3 different experiments.

GTF D [2] = target: T2, GTF D (Streptococcus mutans serotype c, UniProt P49331); test: GTF activity adsorbed onto sHA surface, GTF D; format: biochemical
T2 construct: made in house; host or cells: Streptococcus milleri NH5 (culture supernatant)
T2 sequence (P49331 whole entry): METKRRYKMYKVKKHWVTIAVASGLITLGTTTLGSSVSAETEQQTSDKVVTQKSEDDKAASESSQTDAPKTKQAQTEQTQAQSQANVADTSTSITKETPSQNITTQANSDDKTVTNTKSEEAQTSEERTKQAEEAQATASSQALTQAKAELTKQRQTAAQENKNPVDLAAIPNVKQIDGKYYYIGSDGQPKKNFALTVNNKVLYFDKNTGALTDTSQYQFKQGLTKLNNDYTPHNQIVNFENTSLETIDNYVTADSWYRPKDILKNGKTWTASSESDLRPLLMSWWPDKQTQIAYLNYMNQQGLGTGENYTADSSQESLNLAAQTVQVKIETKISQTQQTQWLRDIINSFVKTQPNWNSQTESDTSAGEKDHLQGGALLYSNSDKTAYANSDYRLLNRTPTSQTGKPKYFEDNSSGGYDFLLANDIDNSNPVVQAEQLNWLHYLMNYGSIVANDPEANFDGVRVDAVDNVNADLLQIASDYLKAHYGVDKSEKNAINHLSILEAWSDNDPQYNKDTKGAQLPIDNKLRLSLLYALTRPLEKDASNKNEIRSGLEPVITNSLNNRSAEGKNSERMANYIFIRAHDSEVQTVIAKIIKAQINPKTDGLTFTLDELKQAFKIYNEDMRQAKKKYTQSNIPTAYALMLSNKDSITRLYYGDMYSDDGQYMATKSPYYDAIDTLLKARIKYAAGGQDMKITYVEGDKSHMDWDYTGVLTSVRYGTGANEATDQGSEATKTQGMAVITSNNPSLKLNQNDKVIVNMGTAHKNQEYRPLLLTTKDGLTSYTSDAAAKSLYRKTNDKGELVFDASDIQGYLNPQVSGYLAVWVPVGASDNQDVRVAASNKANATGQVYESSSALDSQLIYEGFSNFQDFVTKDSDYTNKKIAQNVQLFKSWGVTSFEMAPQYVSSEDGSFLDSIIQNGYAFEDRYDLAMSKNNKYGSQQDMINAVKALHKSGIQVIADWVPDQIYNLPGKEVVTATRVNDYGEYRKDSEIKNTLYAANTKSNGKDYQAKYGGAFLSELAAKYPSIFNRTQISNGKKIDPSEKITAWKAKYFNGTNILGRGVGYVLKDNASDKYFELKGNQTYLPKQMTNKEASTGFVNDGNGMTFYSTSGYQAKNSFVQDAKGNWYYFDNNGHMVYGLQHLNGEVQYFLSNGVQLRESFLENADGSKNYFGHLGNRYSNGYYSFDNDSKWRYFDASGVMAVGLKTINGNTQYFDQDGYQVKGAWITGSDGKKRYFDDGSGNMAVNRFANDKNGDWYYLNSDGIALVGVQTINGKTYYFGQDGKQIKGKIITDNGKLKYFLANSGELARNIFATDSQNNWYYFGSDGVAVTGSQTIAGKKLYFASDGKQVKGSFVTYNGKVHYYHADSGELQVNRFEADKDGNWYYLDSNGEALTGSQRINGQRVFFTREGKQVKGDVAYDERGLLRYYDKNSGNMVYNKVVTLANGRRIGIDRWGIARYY
Description: as §1, §2

GTF B = target: T3, GTF B (Streptococcus mutans serotype c, UniProt P08987); test: GTF activity adsorbed onto saliva-coated hydroxyapatite (sHA) surface, GTF B; format: biochemical
T3 construct: made in house; host or cells: Streptococcus milleri KSB8 (culture supernatant)
T3 sequence (P08987 35-1476): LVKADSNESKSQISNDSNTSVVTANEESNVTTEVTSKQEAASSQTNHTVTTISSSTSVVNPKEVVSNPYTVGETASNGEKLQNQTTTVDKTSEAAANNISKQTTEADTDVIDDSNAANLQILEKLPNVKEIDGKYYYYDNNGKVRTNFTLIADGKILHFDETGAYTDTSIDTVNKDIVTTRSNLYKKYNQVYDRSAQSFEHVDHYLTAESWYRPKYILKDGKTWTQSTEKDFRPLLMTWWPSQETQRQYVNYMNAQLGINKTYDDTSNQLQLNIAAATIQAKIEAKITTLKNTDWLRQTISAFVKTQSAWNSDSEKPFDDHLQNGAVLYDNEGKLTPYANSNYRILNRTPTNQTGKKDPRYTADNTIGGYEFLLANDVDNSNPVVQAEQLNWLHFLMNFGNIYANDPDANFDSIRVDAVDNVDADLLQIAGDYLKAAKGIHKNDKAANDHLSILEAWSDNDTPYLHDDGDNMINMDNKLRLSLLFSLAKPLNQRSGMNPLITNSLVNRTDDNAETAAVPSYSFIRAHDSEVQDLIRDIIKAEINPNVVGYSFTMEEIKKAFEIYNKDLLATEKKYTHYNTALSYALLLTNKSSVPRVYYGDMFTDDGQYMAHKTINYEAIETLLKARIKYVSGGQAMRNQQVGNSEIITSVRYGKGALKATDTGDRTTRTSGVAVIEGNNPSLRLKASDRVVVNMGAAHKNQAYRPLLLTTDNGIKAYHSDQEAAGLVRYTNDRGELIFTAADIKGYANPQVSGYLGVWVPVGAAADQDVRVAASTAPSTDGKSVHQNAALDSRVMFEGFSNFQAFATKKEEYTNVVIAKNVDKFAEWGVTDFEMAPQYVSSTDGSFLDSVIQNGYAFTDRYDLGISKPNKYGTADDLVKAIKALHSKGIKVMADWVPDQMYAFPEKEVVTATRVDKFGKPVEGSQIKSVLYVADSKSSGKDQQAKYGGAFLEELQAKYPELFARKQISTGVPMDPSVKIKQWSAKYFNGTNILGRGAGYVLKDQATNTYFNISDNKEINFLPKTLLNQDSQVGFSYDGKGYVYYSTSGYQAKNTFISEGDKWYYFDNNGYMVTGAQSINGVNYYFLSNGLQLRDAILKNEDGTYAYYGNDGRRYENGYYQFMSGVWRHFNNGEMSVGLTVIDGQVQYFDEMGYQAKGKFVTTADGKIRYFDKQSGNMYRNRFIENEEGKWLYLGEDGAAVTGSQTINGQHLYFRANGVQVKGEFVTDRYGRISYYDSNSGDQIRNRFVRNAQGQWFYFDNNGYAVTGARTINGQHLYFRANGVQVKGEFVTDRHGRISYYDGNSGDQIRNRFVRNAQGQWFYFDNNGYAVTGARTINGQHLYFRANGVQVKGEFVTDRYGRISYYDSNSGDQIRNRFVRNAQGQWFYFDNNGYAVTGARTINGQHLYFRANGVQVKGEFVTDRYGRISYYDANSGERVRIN
Description: as §1, §2

streptococcal GTFs = tested on: T4, streptococcal GTFs; test: GTF activity adsorbed onto sHA surface, all GTFs stated together; format: biochemical, Streptococcus mutans, S. sanguinis; settings: 1.33 mM
T4 construct: Streptococcus milleri KSB8, which harbors the gtfB gene from S. mutans GS-5 (for GTF B production)
Description: as §1
as §2, with “experiments. […]” for “experiments.”

dental caries = test: Rat caries experiment: caries scores (Larson's modification of Keyes' system); format: in vivo, Sprague Dawley rats; settings: Ds and Dm levels; tt-farnesol Dm only; p<0.05
Description: Seven litters of ten female Sprague Dawley rats aged 14 days were purchased with their dams from Charles River (Kingston, N.Y., USA). […] The experiment proceeded for five weeks, at which time the animals were killed by CO2 asphyxiation. The lower left jaw was aseptically dissected, suspended in 5.0 mL of sterile saline solution, and sonicated (three 10-second pulses with 5-second intervals at 30 watts, Branson Sonifier 450). The suspension was plated on mitis salivarius agar plus streptomycin to estimate S. sobrinus population and on blood agar to determine total cultivable flora (TCF). […] The determination of caries score was blind by codification of the jaws and was done by 1 calibrated examiner. […] The level of significance was 5%.

GTF D [3] = target: T2, GTF D; test: GTF activity in solution, GTF D; format: biochemical; settings: read-out: GTF D sol. % of Inhib.
Description: as §1
(§3) For solution assays, purified GTF B, C, D and Ss were mixed with a two-fold dilution series of the test compounds (concentration ranging from 125 to 500 μM) and incubated with [^14C-glucose]-sucrose substrate (0.2 μCi/ml) (200.0 mmol/l sucrose, 40 μmol/l dextran 9000, 0.02% sodium azide in adsorption buffer—50 mM KCl, 1.0 mM KPO4, 1.0 mM CaCl2, 0.1 mM MgCl2−pH=6.5) to reach a final concentration of 100 mmol/l sucrose (200 μl final volume). For the control, the same reaction was carried out, where ethanol:DMSO (final concentration of 7.5% and 1.25%, v/v) or ethanol (final concentration of 5%, v/v) replaced the test agent solutions. The samples were incubated 37° C. with rocking for 4 h. After incubation, ice-cold ethanol (1.0 ml) was added and the samples were stored for 18 h, 4° C. for precipitation of glucans. Radiolabeled glucan was determined by scintillation counting (Germaine et al., 1974; Venkitaraman et al., 1995).

GTF C [4] = target: T1, GTF C; test: GTF activity in solution, GTF C; format: biochemical; settings: read-out: GTF C sol. % of Inhib.
Description: as §1, §3

GTF Ss [5] = target: T5, GTF Ss (Streptococcus sanguinis, UniProt A3CLJ9); test: GTF activity in solution, GTF Ss; format: biochemical, S. sanguinis; settings: read-out: GTF Ss sol. % of Inhib.
Description: as §1, §3

[6] = tested on: Mutans Streptococci Strains; test: MIC and MBC, broth dilution, all strains stated together; format: cell-based, S. mutans (GS-5 and UA159) and S. sobrinus 6715; settings: Streptococcus mutans; all strains tested (S. mutans GS-5, UA159, S. sobrinus 6715); read-out: MIC
Description: The minimum inhibitory concentration (MIC) and minimum bactericidal concentration (MBC) were determined for each test compound according to the National Committee for Clinical Laboratory Standards guidelines (Tentative standard M26-T, 1992; NCCLS Publication No. M7-A5, 2000) and Koo et al. (2000b). The broth microdilution and macrodilution methods (in TSB) were used for the antibacterial tests. The starting inoculum was 5×10^5 CFU/ml and the concentrations of test compounds ranged from 15.6 to 500 μM (two-fold dilutions). The MICs and MBCs were determined in quadruplicate in at least 3 different experiments.

GTF Ss [7] = target: T5, GTF Ss; test: GTF activity adsorbed onto sHA surface, GTF Ss; format: biochemical, S. sanguinis
Description: as §1, §2

biofilms = test: Formation of biofilms (continued research); format: cell-based
[8] = read-out: GTF C surf. % of Inhib.
[9] = read-out: GTF D surf. % of Inhib.
[10] = read-out: GTF B surf. % of Inhib.
[11] = read-out: GTF Ss surf. % of Inhib.

`O=c1cc(-c2ccc(O)cc2)oc2cc(O)cc(O)c12` [Apigenin] was tested, and the IC50 (GTF C [1]; IC50 for surface-adsorbed GTF C, surface-adsorbed) was 458 µM and 451 µM, the inhibition at 125 µM (GTF C [1]; [8]) was 30% and the inhibition at 250 µM (GTF C [1]; [8]) was 42.1%. It also gave an inhibition at 500 µM (GTF C [1]; [8]) of 60.5%, an IC50 (GTF D [2]) of over 1000 µM and an inhibition at 125 µM (GTF D [2]; [9]) of 17%. The inhibition at 250 µM (GTF D [2]; [9]) was 25.5%, the inhibition at 500 µM (GTF D [2]; [9]) was 33% and the IC50 (GTF B; IC50 for surface-adsorbed GTF B, surface-adsorbed) was 478 µM and 474 µM. For the same compound, the inhibition at 125 µM (GTF B; [10]) was 31.8%, the inhibition at 250 µM (GTF B; [10]) was 40% and the inhibition at 500 µM (GTF B; [10]) was 55.5%. For the same compound, the “inhibition of GTFs on a surface” value (streptococcal GTFs) was 60-70%, the “smooth-surface caries severity scores versus control (in words)” value (dental caries) was “significantly lower” and the inhibition at 125 µM (GTF D [3]) was 70.8%. For the same compound, the inhibition at 250 µM (GTF D [3]) was 90.2%, the inhibition at 500 µM (GTF D [3]) was 95% and the inhibition at 125 µM (GTF C [4]) was 77.5%. The inhibition at 250 µM (GTF C [4]) was 87.5%, the inhibition at 500 µM (GTF C [4]) was 90.5% and the inhibition at 125 µM (GTF Ss [5]) was 83.2%. The inhibition at 250 µM (GTF Ss [5]) was 91.2%, the inhibition at 500 µM (GTF Ss [5]) was 92.7% and the MIC [6] was over 500 µM. The inhibition at 125 µM (GTF Ss [7]; [11]) was 13.8%, the inhibition at 250 µM (GTF Ss [7]; [11]) was 20.2% and the inhibition at 500 µM (GTF Ss [7]; [11]) was 30%. For the same compound, the IC50 (GTF Ss [7]; read-out: IC50 for surface-adsorbed GTF SS, surface-adsorbed) was over 1000 µM and the “formation of biofilms (in words)” value (biofilms) was “inhibits formation of biofilms”.
